Assay results as given in PubChem BioAssay (NCI).
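Protocol summary: plate cells (96-well), add compound at 5 concentrations, incubate 48 h, interpolate endpoints linearly. GI50 = concentration required for 50% inhibition of growth. Definition used: TGI = concentration required for complete inhibition of growth.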

Tests used:
Assay in all cases: NCI tumour cell line growth inhibition, 48 h
HCT-116 colon = system: HCT-116 colon
IGROV1 ovarian = system: IGROV1 ovarian
MCF7 breast = system: MCF7 breast
MDA-MB-435 = system: MDA-MB-435
OVCAR-5 ovarian = system: OVCAR-5 ovarian
PC-3 prostate = system: PC-3 prostate
RXF 393 renal = system: RXF 393 renal
SK-MEL-28 melanoma = system: SK-MEL-28 melanoma
SK-MEL-5 melanoma = system: SK-MEL-5 melanoma
SK-OV-3 ovarian = system: SK-OV-3 ovarian

SMILES | GI50 (HCT-116 colon) | TGI (HCT-116 colon) | GI50 (IGROV1 ovarian) | TGI (IGROV1 ovarian) | GI50 (MCF7 breast) | TGI (MCF7 breast) | GI50 (MDA-MB-435) | TGI (MDA-MB-435) | GI50 (OVCAR-5 ovarian) | TGI (OVCAR-5 ovarian) | GI50 (PC-3 prostate) | TGI (PC-3 prostate) | GI50 (RXF 393 renal) | TGI (RXF 393 renal) | GI50 (SK-MEL-28 melanoma) | TGI (SK-MEL-28 melanoma) | GI50 (SK-MEL-5 melanoma) | TGI (SK-MEL-5 melanoma) | GI50 (SK-OV-3 ovarian) | TGI (SK-OV-3 ovarian)
N#Cc1c(N2CCOCC2)nc(=S)[nH]c1-c1ccccc1 | 42.4 µM | > 100 µM | 3.15 µM | > 100 µM | 4.89 µM | > 100 µM | 29.7 µM | > 100 µM | 18.3 µM | > 100 µM | 2.1 µM | 8.79 µM | 21 µM | > 100 µM | 20.5 µM | > 100 µM | 9.36 µM | > 100 µM | 8.48 µM | 98.6 µM
CCCc1cc(=O)n2c(C(=O)Nc3cccc(C(=O)OCC)c3)c(C(=O)Nc3ccc(F)cc3)sc2n1 | 1.06 µM | > 140 µM | 24.8 µM | 65.9 µM | > 140 µM | > 140 µM | > 140 µM | > 140 µM | 136 µM | > 140 µM | 45.9 µM | > 140 µM | 5.3 µM | 13.4 µM | 133 µM | > 140 µM | 75.1 µM | > 140 µM | 23.9 µM | 75 µM
CN1CCC2(CC1)NC(=O)c1c(c3ccc(Cl)c(Cl)c3n1C)C2C#N (stereo not given) | 3.11 µM | 9.17 µM | 2.31 µM | 7.21 µM | 2.53 µM | 8.83 µM | 2.29 µM | 6.58 µM | 8.67 µM | 24.3 µM | 5.7 µM | 21.1 µM | 2.27 µM | 7.3 µM | 1.92 µM | 3.89 µM | 2.11 µM | 5.18 µM | 14.9 µM | 32 µM
CCN1C(=O)N(CC)C2C1NN=c1s/c(=C\c3ccco3)c(=O)n12 (stereo not given) | 0.436 µM | > 100 µM | 1.16 µM | > 100 µM | 0.361 µM | > 100 µM | 0.138 µM | 0.58 µM | 1.31 µM | > 100 µM | 0.455 µM | > 100 µM | 0.558 µM | > 23.4 µM | > 22.8 µM | > 100 µM | 0.415 µM | 55.3 µM | 0.816 µM | > 100 µM
O=C(O)C(C(=O)O)P(=S)(S)c1ccccc1 (stereo not given) | – | > 100 µM | – | > 100 µM | – | > 100 µM | – | > 100 µM | – | > 100 µM | – | > 100 µM | – | > 100 µM | – | > 100 µM | – | > 31.6 µM | – | > 100 µM
Cc1ccc(-c2cc3c4c(nc5ccccc53)C(=O)c3cccnc3-c4n2)cc1 | 7.65 µM | 22.8 µM | 10.7 µM | 55.4 µM | 1.85 µM | 6.31 µM | 5.08 µM | 16 µM | 23 µM | 60.9 µM | 17.3 µM | > 83.8 µM | 9.58 µM | > 100 µM | 19.1 µM | 41.1 µM | 1.67 µM | 3.89 µM | 34.7 µM | > 94.4 µM
O=c1[nH]c(=O)c2cc3cc(C4CC(O)C(CO)O4)ccc3cc2[nH]1 (stereo not given) | > 100 µM | > 100 µM | 1.7 µM | > 100 µM | > 100 µM | > 100 µM | > 100 µM | > 100 µM | > 100 µM | > 100 µM | > 100 µM | > 100 µM | > 100 µM | > 100 µM | > 100 µM | > 100 µM | > 100 µM | > 100 µM | > 100 µM | > 100 µM
C[C@]12CC[C@@H]3c4cc(O)c(O)cc4CC[C@H]3[C@@H]1CC[C@@H]2O | 4.4 µM | > 51.4 µM | 11 µM | > 91.3 µM | 3.07 µM | 18 µM | 0.286 µM | 1.1 µM | 25 µM | > 100 µM | 10.5 µM | > 100 µM | 2.44 µM | 19 µM | 5.47 µM | > 100 µM | 3.54 µM | 16.1 µM | 4.19 µM | 61.8 µM
COC(=O)C1=CO[C@@H](OC2OC(CO)C(O)C(O)C2O)[C@H]2[C@@H](C)[C@@H](O)[C@@H](O)[C@@H]12 (stereo not given in full) | – | > 100 µM | – | > 100 µM | – | > 100 µM | – | > 100 µM | – | > 100 µM | – | > 100 µM | – | > 100 µM | – | > 100 µM | – | > 100 µM | – | > 100 µM
COc1cc(-c2oc3c(OC)cc(OC)c(O)c3c(=O)c2OC)cc(OC)c1OC | – | > 100 µM | – | > 100 µM | – | > 100 µM | – | > 100 µM | – | > 100 µM | – | > 100 µM | – | > 100 µM | – | > 100 µM | – | > 100 µM | – | 22.9 µM
N#C[Se]CCN1C(=O)C2C(C1=O)[C@H]1C=C[C@@H]2S1 (stereo not given in full) | 1.85 µM | 4.35 µM | 1.59 µM | 3.48 µM | 2.37 µM | 9.19 µM | 1.7 µM | 3.26 µM | 2.56 µM | 6.4 µM | 2.11 µM | 5.9 µM | 1.63 µM | 3.27 µM | 1.92 µM | 5.02 µM | 2.02 µM | 4.09 µM | 2.67 µM | 5.59 µM
